Measurements taken from ChEMBL document CHEMBL5506009 (Eur J Med Chem, 2024).

How the values were obtained:
[1] = Inhibition of wild type influenza A virus H5N1 A/Anhui/1/2005 Neuraminidase using MUNANA as substrate
Influenza A virus = test: microbe, parasite or virus in culture; settings: H5N1

SMILES	IC50 [1] [nM]	EC50 (Influenza A virus) [nM]
Cc1cc([N+](=O)[O-])ccc1NC(=O)CSc1nnc(COc2ccc3ccccc3c2)o1	1350	
O=C(CSc1nnc(-c2ccc3ncccc3c2)o1)NCCc1ccc2c(c1)OCO2	81000	
O=C(CSc1nnc(COc2ccc3ccccc3c2)o1)NCCc1ccc2c(c1)OCO2	25600	
COc1ccc(CCNC(=O)CSc2nnc(-c3ccc4ncccc4c3)o2)cc1OC	2650	
O=C(CSc1nnc(-c2ccc3ncccc3c2)o1)NCCc1cccc(F)c1	10700	
COc1ccc(CCNC(=O)CSc2nnc(COc3ccc4ccccc4c3)o2)cc1OC	2820	
O=C(CSc1nnc(COc2ccc3ccccc3c2)o1)NCc1ccc(F)cc1	140	3700
COc1cc(NC(=O)CSc2nnc(COc3ccc4ccccc4c3)o2)cc(OC)c1OC	43800	
O=C(CSc1nnc(-c2ccc3ncccc3c2)o1)NCc1ccc(Cl)c(Cl)c1	470	110
O=C(CSc1nnc(-c2ccc3ncccc3c2)o1)NCc1ccc(F)cc1	1750	
O=C(CSc1nnc(COc2ccc3ccccc3c2)o1)Nc1ccc(C(F)(F)F)cn1	22700	
O=C(CSc1nnc(COc2ccc3ccccc3c2)o1)NCCc1cccc(F)c1	1160	
O=C(CSc1nnc(-c2ccc3ncccc3c2)o1)Nc1ccc(C(F)(F)F)cn1	1960	
COc1cccc(CCNC(=O)CSc2nnc(COc3ccc4ccccc4c3)o2)c1	2840	
COc1cc(NC(=O)CSc2nnc(-c3ccc4ncccc4c3)o2)cc(OC)c1OC	10400	
O=C(CSc1nnc(COc2ccc3ccccc3c2)o1)NCc1ccc(Cl)c(Cl)c1	860	
COc1cccc(CCNC(=O)CSc2nnc(-c3ccc4ncccc4c3)o2)c1	2510	
CCC(CC)O[C@@H]1C=C(C(=O)O)C[C@H](N)[C@H]1NC(C)=O [OSELTAMIVIR CARBOXYLATE]	310	1470
